Reference: patent US20060194815A1, “Methods and compositions for modulating serum cortisol levels” (priority 2003, published 2006)
Entries after “also recorded” stand apart in the source; their conditions may differ.

Tests used:
P-450SCC enzyme = assay: Immunoblot of P-450SCC enzyme expression in Y1 cells; format: cell-based, mouse; settings: Y1 cell extracts
Procedure: At the end of the treatment protocol described above, Y1 cells at 90% confluency were washed 2 times with PBS, sonicated 15 seconds in extraction buffer and centrifuged at 18,500 g for 15 minutes at 4° C. Pellets were resuspended in ice-cold lysis buffer (1% Nonidet 40 in extraction buffer), sonicated briefly, and incubated on ice for 1 hour. After centrifugation (22,500 g×30 min, 4° C.), the supernatant was mixed in sample buffer 6× (0.27 M SDS, 0.6 M dithiothreitol, 0.18 M bromphenol blue in 7 ml of 0.5 M Tris-HCl, pH 6.8, and 3 ml glycerol) and boiled for 5 minutes. Proteins were subjected to SDS-PAGE (4-20% gradient SDS polyacrylamide gel) and electrophoretically transferred onto nitrocellulose membranes. The transblot sheets were blocked with 5% non fat dry milk in 25 mM Tris HCl, pH 7.5, 150 mM NaCl, and 0.1% Tween 20 overnight at 4° C. Membranes were then incubated with appropriately diluted primary antibodies 1:800 for anti-P-450SCC (Research Diagnostics Inc. Flanders, N.J.) and 1:200 for anti-StAR (Amri et al., 1996), and the reaction was detected by a peroxidase-conjugated secondary antibody (Santa Cruz Biotechnology, Santa Cruz, Calif.) and enhanced chemiluminescence (Amersham Life, Arlington Heights, Ill.). The densities of the appropriate bands were determined using the OptiQuant Acquisition & Analysis software (Packard BioScience).

[1] = tested on: MA-10 mouse Leydig tumor cells; assay: MTT cell viability, MA-10 cells; format: cell-based
Procedure: Cell viability at the end of the incubation protocol described above was assessed using the mitochondrial integrity 3-(4,5-dimethylthiazol-2-yl)-2,5-diphenyl tetrazolium bromide (MTT) assay (Trevigen, Gaithersburg, Md.). Briefly, 10 l of the MTT solution were added to the cells in 100 l medium. After an incubation period of 4 hours, 100 l of detergent were added and cells were incubated overnight at 37° C. Formazan blue formation was quantified at 600 nm and 690 nm using the Victor quantitative detection spectrophotometer (EGG-Wallac, Gaithersburg, Md.) and the results expressed as (OD600-OD690).

cytochrome P-450SCC = target: T1, cytochrome P-450SCC (Mus musculus, UniProt Q9QZ82); assay: 22R-hydroxycholesterol-induced 20-OH progesterone formation (P-450SCC activity) in Y1 cells; format: cell-based
T1 construct: endogenous in cells; host or cells: Y1 mouse adrenal tumor cells
T1 sequence (Q9QZ82 37-526): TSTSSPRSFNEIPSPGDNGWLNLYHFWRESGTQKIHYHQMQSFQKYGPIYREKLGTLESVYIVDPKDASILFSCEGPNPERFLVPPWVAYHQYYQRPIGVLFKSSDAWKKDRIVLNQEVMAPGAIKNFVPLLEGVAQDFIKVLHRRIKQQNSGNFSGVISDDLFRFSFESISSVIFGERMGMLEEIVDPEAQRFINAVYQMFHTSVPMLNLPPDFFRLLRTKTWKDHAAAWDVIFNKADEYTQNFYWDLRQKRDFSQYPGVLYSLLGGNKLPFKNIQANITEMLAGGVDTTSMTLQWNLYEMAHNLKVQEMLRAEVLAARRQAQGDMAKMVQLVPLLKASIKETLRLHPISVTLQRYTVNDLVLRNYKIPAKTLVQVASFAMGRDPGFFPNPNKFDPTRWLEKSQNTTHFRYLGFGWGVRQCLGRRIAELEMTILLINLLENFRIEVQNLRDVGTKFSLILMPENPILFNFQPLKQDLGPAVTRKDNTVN
Procedure: Culture media were then changed and cells were stimulated with 1 mM dbcAMP and the treatment for 24 to 48 hours. […] The synthesis of 20-OH progesterone and progesterone in Y1 and MA-10 cell media respectively were measured by RIA (Brown et al., 1992). H295R human adrenal tumor cells were seeded in 48-well plates at 10^5 cells/well and incubated for 24 hours. […] At the end of the incubation time period, cells were treated with 1 mM dbcAMP for 48 hours. Cortisol levels in the media were determined by radioimmunoassay as previously described (Amri et al., 1996).

[2] = tested on: peripheral-type benzodiazepine receptor (PBR); assay: PBR radioligand binding assay ([3H]PK 11195) in procaine-treated cells; settings: 1 μM procaine, 48 hour treatment
Procedure: Radioligand binding assays were performed as previously described (Papadopoulos et al., 1990, J. Biol. Chem. 265, 3772-3779). In brief, cells were scrapped from culture flasks into PBS, dispersed by trituration, and centrifuged at 1200×g for 5 min. The cells were resuspended in PBS to a final concentration of 10-50 μg protein/100 μl. Saturation binding studies were performed in a final volume of 300 μl in the presence of the radioligand [^3H]PK 11195 (specific activity 83.5 Ci/mmol; NEN Life Science Products) at the indicated concentrations. Nonspecific binding was determined in the presence of 6 μM of the homologous non-radioactive ligand. After 180 min incubation at 4° C., the assays were stopped by filtration through Whatman GF/C filters (Clifton, N.J.) and washed with 10 ml PBS. Bound radioactivity was determined by liquid scintillation counting. Bound [^3H]PK 11195 and [^3H]cholesterol were quantified by liquid scintillation spectrometry. Dissociation constants (Kd), the number of binding sites (Bmax) and Hill coefficients (nH) for PK 11195 and cholesterol were determined by Curve-Fit (Prism version 3.0, GraphPad Software Inc., San Diego, Calif.).

CCN(CC)CCOC(=O)c1ccc(N)cc1 [procaine]
expression of the P-450SCC enzyme (immunoblot) (P-450SCC enzyme): did not modify
cell viability (MTT assay) [1]: did not affect
effect of 22R-hydroxycholesterol on steroidogenesis (cytochrome P-450SCC): did not inhibit; also recorded: did not affect
ligand binding characteristics / expression of PBR [2]: did not affect
PBR Kd of [3H]PK 11195 in procaine-treated cells ([2]; control 1.8 nM, Kd of the radioligand, not of procaine): 1.7 nM
PBR Bmax ([3H]PK 11195) in procaine-treated cells ([2]; control 27±3): 29±4 pmol/mg protein
ligand binding characteristics / expression of PBR ([2]; listed as Procaine): had no effect
